In patent US12365674B2, “Inhibitors of histone deacetylase useful for the treatment or prevention of HIV infection” (Merck Sharp & Dohme LLC, priority 2019, dated 2025):

Target: T1, human HDAC1 (Homo sapiens, UniProt Q13547)
T1 construct: Full length human HDAC1-FLAG was stably expressed in HEK-293F cells; host or cells: HEK-293F cells
Assay: Human HDAC enzyme inhibitor Fluor-de-Lys assay, HDAC1
Type: biochemical
Conditions: 0.3 nM enzyme, 20 μM substrate BML-KI104, 3 h pre-incubation, 60 min reaction; read-out: HDAC1_IC50
Description: Recombinant human HDAC8 (catalog number BML-SE145-0100) and HDAC10 (catalog number BML-SE559-0050) enzymes, HDAC substrates BML-KI104 and BML-KI178, and HDAC developer solutions BML-KI105 and BML-KI176 were purchased from Enzo Life Sciences (Farmingdale, NY). Recombinant human HDAC5 and HDAC11 were purchased from BPS Bioscience (San Diego, CA)(catalog numbers 50045 and 50021). Substrate Boc-Lys(TFA)-AMC was obtained from Bachem (Bupendorf, Switzerland) (catalog number 1-1985). HDAC inhibitor suberoylanilide hydroxamic acid (SAHA) was obtained from Indofine (Hillsborough Township, NJ) and trichostatin A (TSA) was obtained from Sigma-Aldrich (St. Louis, MO). […] HEPES pH 8.0 was obtained from Boston BioProducts (Ashland, MA), Tween-20 from Fisher Scientific (Hampton, NH)(catalog number BP337), TCEP from Calbiochem and 7.5% bovine serum albumin (BSA) from Life Technologies (Carlsbad, CA) (catalog number 15260037). 384-well, black assay plates were obtained from Corning (Corning, NY) (catalog number 3575).
Recombinant human HDAC1, HDAC2, and HDAC3/SMRT heterodimer were prepared by Merck Research Laboratories. […] The eluted protein was then passed over an anti-HDAC1 immunoaffinity column to remove any complexes containing HDAC1. […]
The histone deacetylase activities of HDAC1, HDAC2, HDAC3, HDAC6, and HDAC8 were measured in modified Fluor-de-Lys assays in 384-well format. In this assay, HDAC enzymes are initially incubated with an ε-acetyl (or -trifluoroacetyl)-L-lysine-containing substrate with a C-terminal amide having aminomethylcoumarin as the amine component. HDACs cleave the ε-acetyl group, rendering the resulting product susceptible to AMC cleavage by trypsin. The released AMC is then detected by its fluorescence.
The HDAC 1, 2 assays employed buffer A, which contained 20 mM HEPES, pH 8.0, 1 mM MgCl2, 137 mM NaCl, 2.7 mM KCl, 0.05% BSA. The HDAC3/SMRT assay employed buffer B, consisting of 20 mM HEPES, pH 8.0, 1 mM MgCl2, 50 mM NaCl, 2.7 mM KCl, 0.05% BSA, 0.005% Tween 20, and 10 μM IP4. The HDAC6 assay employed buffer C, consisting of 20 mM HEPES, pH 8.0, 1 mM MgCl2, 137 mM NaCl, 2.7 mM KCl, 0.5 mM TCEP (Calbiochem) and 0.05% BSA. The HDAC8 assay employed buffer D, consisting of 20 mM HEPES, pH 8.0, 1 mM MgCl2, 100 mM NaCl, 20 mM KCl, 0.1% n-octyl-β-D-glucoside (Anatrace, Maumee, OH) and 0.05% BSA. All steps were performed at room temperature (23° C.). The assay was performed by pre-incubating serial dilutions of test compounds with the target HDAC prior to initiation with substrate. Each compound was titrated in a 10-point dose response, using a 1:3 fold dilution scheme, with 0.15 ul of solution added by ECHO555 to the plate, followed by the addition of 20 μl of the appropriate HDAC isoform diluted in appropriate assay buffer. […] Final conditions used for each assay were: 1. HDAC 1, 0.3 nM total enzyme, 20 μM substrate BML-K1104; 2. HDAC 2, 1.5 nM total enzyme, 40 μM substrate BML-K1104; 3. HDAC 3/SMRT, 0.3 nM total enzyme, 20 μM substrate BML-K1104; 4. HDAC 6, 1.3 nM total enzyme, 2.5 μM substrate BML-K1104; 5. HDAC 8, 1.3 nM total enzyme, 200 μM substrate BML-K1178; the final high dose of test compound was 30 μM. […] The reactions were stopped and developed by addition of 30 ul of HDAC developer solution containing a saturating level of HDAC inhibitor as follows: 1.

T1 sequence (Q13547 whole entry): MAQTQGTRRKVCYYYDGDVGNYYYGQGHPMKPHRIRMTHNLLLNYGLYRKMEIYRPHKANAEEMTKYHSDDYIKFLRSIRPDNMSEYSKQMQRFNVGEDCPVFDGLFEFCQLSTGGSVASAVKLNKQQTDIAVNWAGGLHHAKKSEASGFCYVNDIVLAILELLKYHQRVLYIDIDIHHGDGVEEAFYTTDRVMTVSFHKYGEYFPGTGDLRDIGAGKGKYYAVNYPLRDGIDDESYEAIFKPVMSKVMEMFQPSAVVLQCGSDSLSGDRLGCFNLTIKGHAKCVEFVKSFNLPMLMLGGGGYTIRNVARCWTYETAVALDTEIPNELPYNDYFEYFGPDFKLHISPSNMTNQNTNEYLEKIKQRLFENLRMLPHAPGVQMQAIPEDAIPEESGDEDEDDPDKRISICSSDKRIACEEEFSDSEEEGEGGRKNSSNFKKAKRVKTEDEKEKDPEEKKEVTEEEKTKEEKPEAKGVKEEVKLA

Row | Structure (SMILES) | IC50 [nM]
1 | CN1CC(C(=O)N[C@@H](COCCCC(=O)c2ccon2)c2[nH]c(-c3ccc(F)cc3)nc2Cl)C1 [Compound 16, N-[(1R)-1-[4-chloro-2-(4-fluorophenyl)-1H-imidazol-5-yl]-2-(4-isoxazol-3-yl-4-oxobutoxy)ethyl]-1-methylazetidine-3-carboxamide] | 11.8
2 | CNC(=O)C(=O)CCCOC[C@H](NC(=O)C12CCN(CC1)CC2)c1ncc(-c2cc3ccccc3nc2OC)[nH]1 [Compound 9, N-[(1R)-1-[5-(2-methoxyquinolin-3-yl)-1H-imidazol-2-yl]-2-{[5-(methylamino)-4,5-dioxopentyl]oxy}ethyl]-1-azabicyclo[2.2.2]octane-4-carboxamide] | 1.5
3 | CN1CCC2(CC1)C[C@@H]2C(=O)N[C@@H](COCCCC(=O)c1ccon1)c1[nH]c(-c2ccc(F)cc2)nc1Cl [Compound 18, (1S)-N-[(1R)-1-[4-chloro-2-(4-fluorophenyl)-1H-imidazol-5-yl]-2-(4-isoxazol-3-yl-4-oxobutoxy)ethyl]-6-methyl-6-azaspiro[2.5]octane-1-carboxamide] | 1.4
4 | Cc1ccc2cc(-c3cnc([C@H](CSCCCC(=O)c4ncco4)NC(=O)[C@H]4CC45CCN(C)CC5)[nH]3)ccc2n1 [Compound 21, (1S)-6-methyl-N-[(1R)-1-[5-(2-methylquinolin-6-yl)-1H-imidazol-2-yl]-2-{[4-(1,3-oxazol-2-yl)-4-oxobutyl]sulfanyl}ethyl]-6-azaspiro[2.5]octane-1-carboxamide] | 1.5
5 | CN(C)CC(=O)N[C@@H](COCCCC(=O)c1ccon1)c1[nH]c(-c2ccc(F)cc2)nc1Cl [Compound 17, N-[(1R)-1-[4-chloro-2-(4-fluorophenyl)-1H-imidazol-5-yl]-2-(4-isoxazol-3-yl-4-oxobutoxy)ethyl]-N~2~,N~2~- dimethylglycinamide] | 18.6
6 | CNC(=O)C(=O)CCCOC[C@H](NC(=O)c1cncs1)c1ncc(-c2cc3ccccc3nc2OC)[nH]1 [Compound 8, N-[(1R)-1-[5-(2-methoxyquinolin-3-yl)-1H-imidazol-2-yl]-2-{[5-(methylamino)-4,5-dioxopentyl]oxy}ethyl]-1,3-thiazole-5-carboxamide] | 1.5
7 | COc1nc2ccccc2cc1-c1cnc([C@H](COCCCC(=O)c2ncco2)NC(=O)CN(C)C)[nH]1 [Compound 13, N-{(1R)-1-[5-(2-methoxyquinolin-3-yl)-1H-imidazol-2-yl]-2-[4-(1,3-oxazol-2-yl)-4-oxobutoxy]ethyl}-N~2~,N~2~- dimethylglycinamide] | 2.7
8 | COc1nc2ccccc2cc1-c1cnc([C@H](COCCCC(=O)c2ncco2)NC(=O)c2cncs2)[nH]1 [Compound 10, N-{(1R)-1-[5-(2-methoxyquinolin-3-yl)-1H-imidazol-2-yl]-2-[4-(1,3-oxazol-2-yl)-4-oxobutoxy]ethyl}-1,3-thiazole-5-carboxamide] | 6.6
9 | COc1nc2ccccc2cc1-c1cnc([C@H](COCCCC(=O)c2ncco2)NC(=O)[C@H]2CC23CCN(C)CC3)[nH]1 [Compound 11, (1S)-N-{(1R)-1-[5-(2-methoxyquinolin-3-yl)-1H-imidazol-2-yl]-2-[4-(1,3-oxazol-2-yl)-4-oxobutoxy]ethyl}-6-methyl-6-azaspiro[2.5]octane-1-carboxamide] | 2.1
10 | COc1cc2nc(C)ccc2cc1-c1cnc([C@H](COCCCC(=O)c2cc(C)on2)NC(=O)C2CN(C)C2)[nH]1 [Compound 19, N-{(1R)-1-[5-(7-methoxy-2-methylquinolin-6-yl)-1H-imidazol-2-yl]-2-[4-(5-methylisoxazol-3-yl)-4-oxobutoxy]ethyl}-1-methylazetidine-3-carboxamide] | 6.9
11 | N[C@@H](COCCCC(=O)c1ccon1)c1ncc(-c2ccccc2F)[nH]1 [Compound 2, (R)-4-(2-amino-2-(5-(2-fluorophenyl)-1H-imidazol-2-yl)ethoxy)-1-(isoxazol-3-yl)butan-1-one] | 602
12 | COc1nc2ccccc2cc1-c1cnc([C@@H](N)COCCCC(=O)c2ncco2)[nH]1 [Compound 1, (R)-4-(2-amino-2-(5-(2-methoxyquinolin-3-yl)-1H-imidazol-2-yl)ethoxy)-1-(oxazol-2-yl)butan-1-one] | 288
13 | COc1nc2ccccc2cc1-c1cnc([C@H](COCCCC(=O)c2ccon2)NC(=O)CN(C)C)[nH]1 [Compound 14, N-{(1R)-2-(4-isoxazol-3-yl-4-oxobutoxy)-1-[5-(2-methoxyquinolin-3-yl)-1H-imidazol-2-yl]ethyl}-N~2~,N~2~- dimethylglycinamide] | 1.5
14 | CN1CC(C(=O)N[C@@H](COCCCC(=O)c2ccon2)c2ncc(-c3ccccc3F)[nH]2)C1 [Compound 15, N-[(1R)-1-[5-(2-fluorophenyl)-1H-imidazol-2-yl]-2-(4-isoxazol-3-yl-4-oxobutoxy)ethyl]-1-methylazetidine-3-carboxamide] | 4
15 | COc1nc2ccccc2cc1-c1cnc([C@H](COCCCC(=O)c2ncco2)NC(=O)C23CCN(CC2)CC3)[nH]1 [Compound 12, N-{(1R)-1-[5-(2-methoxyquinolin-3-yl)-1H-imidazol-2-yl]-2-[4-(1,3-oxazol-2-yl)-4-oxobutoxy]ethyl}-1-azabicyclo[2.2.2]octane-4-carboxamide] | 4.7
16 | COc1cc2nc(C)ccc2cc1-c1cnc([C@H](COCCCC(=O)c2cc(C)on2)NC(=O)[C@H]2CC23CCN(C)CC3)[nH]1 [Compound 20, (1S)-N-{(1R)-1-[5-(7-methoxy-2-methylquinolin-6-yl)-1H-imidazol-2-yl]-2-[4-(5-methylisoxazol-3-yl)-4-oxobutoxy]ethyl}-6-methyl-6-azaspiro[2.5]octane-1-carboxamide] | 3.7
